ChEMBL document CHEMBL1201862, “PubChem BioAssay data set” (2004)
One block for each compound: values may come before it. Active and inactive are the calls of the source.

Tests used:
[1] = molecular target: Metabotropic glutamate receptor 5 (Rattus norvegicus, UniProt P31424); assay: Identification of a glycine sulfonamide based non-MPEP site positive allosteric potentiator (PAM) of mGlu5 (calcium_assay).; format: functional
[2] = reduction of Shn3 3'UTR-driven luciferase in osteoblasts – cell-based, Clone20 osteoblasts, firefly luciferase, cherry-picked, dose response (AID 624132); format: functional;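 note: firefly luciferase luminescence from reporter carrying the Shn3 3'UTR in osteoblasts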
[3] = Shn3 3'UTR reporter signal decrease – cell-based, Clone20 osteoblasts, firefly luciferase, cherry-pick, set 2, Schnurri-3 inhibitor project, dose response (AID 720490); format: functional;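 note: actives lower the luminescence signal as inhibitors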
[4] = EF1alpha-driven Renilla reporter with control 3'UTR suppression – Clone20-Shn3RL cells, dual-Glo, cherry-pick, set 2, counter-screen for Shn3 3'UTR targeting project, dose response (AID 720724); format: functional, cell-based; conditions: Dual-Go Shn3RL
[5] = IC50 of insulin release inhibition, rat insulinoma INS-1E line, 5 mM glucose, cell-based (AID 1117331); format: functional
Cytochrome P450 2C9 = Cytochrome P450 2C9 (Homo sapiens, UniProt P11712)
[6] = decrease of insulin promoter-GFP reporter – imaging, high-content screening, mouse beta cells (AID 1628); format: functional; conditions: MIN6
[7] = MIN6 cell viability loss – mouse insulinoma, cytotoxicity control, dose response (AID 2122); format: functional;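 note: confirmatory high-throughput counterscreen run to flag cytotoxic compounds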
[8] = Trypanosoma cruzi growth suppression in host cells – NIH3T3 host cells, beta-gal luminescence, confirmation (AID 2044); format: functional, cell-based;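 note: intracellular parasites grown in NIH/3T3 mouse fibroblasts as host cells; luminescent beta-galactosidase reporter signal from transgenic T. cruzi replicating inside host cells; inhibitors lower the luminescence signal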
[9] = NIH3T3 cell viability loss – ATP luminescence, mouse fibroblasts, counter-screen, dose response (AID 2010); format: functional, cell-based;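 note: cells exposed to compound for about 90 hours before reading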
[10] = toxicity toward HepG2 liver cells – cell-based, plate reader, cherry-pick, antagonist series, cytotoxicity control, dose response (AID 743416); format: functional
[11] = blockers of bursicon-stimulated LGR2 cAMP reporter – cell-based, HEK293, CRE-luciferase reporter, cherry pick, set 2, dose response (AID 743343); format: functional;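 note: transfected cells were stimulated with diluted bursicon conditioned medium after compound addition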
[12] = blockade of melanocortin 4 receptor signaling – cell-based, plate reader, cherry pick, counter-screen for LGR2 antagonist project, dose response (AID 743444); format: functional;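 note: transfected HEK 293 cells stimulated with alpha-MSH peptide; potency of inhibitors of the alpha-MSH evoked signal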
[13] = viability loss in HEK293 cells – cell-based, plate reader, cherry-picked samples, cytotoxicity control, dose response (AID 743446); format: functional
[14] = viability loss in Vero cells – cytotoxicity control for Vif-APOBEC3G degradation inhibitor project, dose response (AID 1117358); format: functional; conditions: Vero
Transthyretin = Transthyretin (Homo sapiens, UniProt P02766); assay: Luminescence-based cell-based high throughput dose response assay to identify activators of Transthyretin (TTR) transcription.; format: functional
[15] = A549 lung cell viability reduction – CellTiter-Glo luminescence, cherry-pick, cytotoxicity control, dose response (AID 743484); format: functional, cell-based

Chain of Cytochrome P450 2C9 (P11712 whole entry): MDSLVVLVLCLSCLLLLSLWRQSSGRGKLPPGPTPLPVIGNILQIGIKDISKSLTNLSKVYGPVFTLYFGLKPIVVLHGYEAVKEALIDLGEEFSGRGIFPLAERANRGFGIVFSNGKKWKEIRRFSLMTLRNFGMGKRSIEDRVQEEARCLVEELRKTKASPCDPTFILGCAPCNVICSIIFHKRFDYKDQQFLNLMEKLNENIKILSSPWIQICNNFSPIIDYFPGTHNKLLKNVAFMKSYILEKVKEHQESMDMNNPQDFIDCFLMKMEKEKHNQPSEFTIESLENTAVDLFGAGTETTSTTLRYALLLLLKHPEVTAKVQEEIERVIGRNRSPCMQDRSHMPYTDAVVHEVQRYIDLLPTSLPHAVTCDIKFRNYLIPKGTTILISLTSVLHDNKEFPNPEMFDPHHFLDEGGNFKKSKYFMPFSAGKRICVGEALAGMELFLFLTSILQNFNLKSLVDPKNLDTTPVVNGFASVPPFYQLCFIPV
Chain of Metabotropic glutamate receptor 5 (P31424 whole entry): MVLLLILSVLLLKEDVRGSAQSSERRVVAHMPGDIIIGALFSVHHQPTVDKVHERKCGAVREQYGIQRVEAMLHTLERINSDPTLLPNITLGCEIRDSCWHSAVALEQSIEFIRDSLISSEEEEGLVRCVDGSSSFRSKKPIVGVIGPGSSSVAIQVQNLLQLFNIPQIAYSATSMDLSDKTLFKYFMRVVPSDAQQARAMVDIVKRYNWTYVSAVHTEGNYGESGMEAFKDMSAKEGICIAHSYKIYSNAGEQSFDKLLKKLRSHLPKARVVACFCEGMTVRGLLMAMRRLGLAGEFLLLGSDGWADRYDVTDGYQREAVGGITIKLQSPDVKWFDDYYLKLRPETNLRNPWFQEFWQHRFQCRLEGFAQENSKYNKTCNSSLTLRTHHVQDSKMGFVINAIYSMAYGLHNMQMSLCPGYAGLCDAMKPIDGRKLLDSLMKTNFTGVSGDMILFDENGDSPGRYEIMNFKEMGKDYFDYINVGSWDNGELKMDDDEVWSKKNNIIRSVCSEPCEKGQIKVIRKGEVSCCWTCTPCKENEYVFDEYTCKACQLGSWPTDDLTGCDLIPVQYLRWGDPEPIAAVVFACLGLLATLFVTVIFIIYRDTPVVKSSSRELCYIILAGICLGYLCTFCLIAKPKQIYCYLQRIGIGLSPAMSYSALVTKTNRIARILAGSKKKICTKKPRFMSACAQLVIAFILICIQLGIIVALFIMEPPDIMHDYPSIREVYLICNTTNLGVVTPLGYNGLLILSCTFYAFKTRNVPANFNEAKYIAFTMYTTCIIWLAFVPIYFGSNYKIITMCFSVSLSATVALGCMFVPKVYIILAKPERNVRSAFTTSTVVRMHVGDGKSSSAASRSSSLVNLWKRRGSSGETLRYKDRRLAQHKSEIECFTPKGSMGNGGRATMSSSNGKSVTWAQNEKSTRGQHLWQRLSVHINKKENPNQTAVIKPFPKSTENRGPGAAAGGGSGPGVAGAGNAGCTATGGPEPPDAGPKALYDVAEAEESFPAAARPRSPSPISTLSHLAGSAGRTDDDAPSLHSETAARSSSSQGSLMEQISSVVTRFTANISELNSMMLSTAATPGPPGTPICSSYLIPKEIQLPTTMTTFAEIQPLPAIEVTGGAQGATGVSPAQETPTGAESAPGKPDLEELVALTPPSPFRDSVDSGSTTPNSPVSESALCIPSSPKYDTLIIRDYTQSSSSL

EC50 [1]: 10 µM (inconclusive)
SMILES: CC(C)N(CC(=O)Nc1ccccc1)S(C)(=O)=O

SMILES: Cc1ccc(CNC(=O)CSc2c3c(nc4ccc(Cl)cc24)CCCC3)o1
AC50 [2]: 5.98 µM (active) | AC50 [3]: 10.7 µM (active) | AC50 [4]: 37.6 µM (active)

SMILES: COc1ccccc1N1CCN(CCCCNC(=O)c2ccc(-c3ccc(C(C)=O)cc3)cc2)CC1
IC50 [5]: > 33.3 µM (inactive) | AC50 (Cytochrome P450 2C9): inconclusive

SMILES: Cc1cc(C)c(Cc2c(C)nc3c(C(=O)NCc4ccco4)cnn3c2C)c(C)c1
IC50 [6]: 1.51 µM (active) | IC50 [7]: 1.42 µM (active) | EC50 [8]: 2.67 µM (active) | EC50 [9]: > 60 µM (not active) | AC50 [10]: 32.9 µM (active) | AC50 [11]: 19.9 µM (active) | AC50 [12]: 55.6 µM (active) | AC50 [13]: 50 µM (active) | CC50 [14]: > 40 µM (active)

EC50 (Transthyretin): > 167 µM (inactive)
SMILES: COc1ccc([C@@H]2CC=C(C(=O)O)[C@H](c3ccccc3F)N2S(=O)(=O)c2ccccc2C)cc1

SMILES: CSc1nc(N)nc(SC2C=CCCC2)c1C#N (configuration not stated)
AC50 [15]: > 52 µM (inactive)
